Data set [1] is described as follows: Plasma Protein Binding, human. Type of data set: in vitro ADME.
For another data set, the target named is CYP2C9 (Homo sapiens, UniProt P11712). Kind of data set: CYP inhibition 2C9. Conditions: 2C9, 10 μM. Type of data set: in vitro ADME.
Another data set concerns the target CYP2D6 (Homo sapiens, UniProt P10635). Kind of data set: CYP inhibition 2D6. Type of data set: in vitro ADME. To be noted: 2D6, 10 μM.
Another data set deals with CYP3A4 (Homo sapiens, UniProt P08684). Kind of data set: CYP inhibition 3A4. Conditions: 3A4, 10 μM. Type of data set: in vitro ADME.
In the next data set the target is CYP2C19 (Homo sapiens, UniProt P33261). Kind of data set: CYP inhibition 2C19. Conditions: 2C19, 10 μM. Type of data set: in vitro ADME.
Data set [2] in a line: Plasma Protein Binding, rat. The class given is in vitro ADME.
The nature of a further data set: Plasma stability, rat. Type of data set: in vitro ADME.
The nature of the next data set: t1/2 i.v. rat. To be noted: in vivo, iv.
The target of a further data set is human TRPM8 (Homo sapiens, UniProt Q7Z2W7). Kind of data set: High-throughput FLIPR TETRA calcium fluorescence assay for TRPM8 antagonists in HEK293/hTRPM8 cells. The class given is cell-based. Also on record: expressed in transfected cells. To be noted: agonist Cooling Agent 10 at EC80, Ca2+ fluorescence. From the text: A functional cell-based assay for the identification of TRPM8 receptor antagonists, optimised to allow high throughput screening at FLIPR^TETRA, was developed in HEK293 cells by stable pure clone selection and functional characterization with a fluorescent calcium sensitive dye.
TRPM8 was cloned into the multiple clonig site of pcDNA3 mammalian expression vector; the obtained construct pcDNA3/hTRPM8 was fully sequence verified and used for the transfection of HEK293 cell line. HEK293 cells stably transfected with TRPM8 gene were maintained in Minimum essential medium. The cells were transfected with the pcDNA3/hTRPM8 vector by electroporation and then selected with medium containing 0.8 mg/ml G418 for 10-15 days.
The following commercial compounds were used as ligands: • Activator: Cooling Agent 10 (Takasago CAS N. 87061-04-9) • Blocker: Capsazepine (SIGMA cat #D—5879)
The experimental activities were performed using FLIPR^TETRA instruments.
HEK293 cells stably transfected with TRPM8 gene were maintained in Minimum essential medium.
The TRPM8 cell line was analysed for the response to a library of compounds using a Ca^2+ mobilization-dependent fluorescence signal in 384 wells microtiter plate format. The analysis was performed using the FLIPR^TETRA (MDC) with the ICCD Camera.
The execution of the assay involved the use of three microtiter plates:
1. Assay plate, containing cells loaded with dye and prepared as follows:
Cells were seeded at 15000 c/well in Poly-D-Lysine coated 384 wells Microtiter Plates in complete medium (25 μl/well).
24 h after seeding, the cell plates were washed with Tyrode assay buffer by the Microplate Washer and 10 μL of Tyrode assay buffer was left in each well.
Cells were then loaded with 10 μL/well of the Fluo-4 NW dye solution by CyBi®-Well pipettor. Each bottle of Fluo4-NW dye (Molecular Probes cat. #F36206, component A) was re-suspended in 8 mL of Tyrode assay buffer and supplemented with 100 μL of water-soluble probenecid (MolecularProbes cat.#F36206, component B).
Dye loaded cell plates were incubated for 1 h at room temperature.
2. Compound Dilution Plate (FIG. 1), containing diluted test compounds, formulated as follows: • Column 1: wells containing Assay Buffer plus DMSO 0.5% final • Column 2: wells alternating Max Signal Control in first injection (Maximum Response: Cooling Agent 10 at EC100, 100 μM) and Min Signal Control in first injection (Assay buffer plus 0.5% DMSO final); • Columns 3-22: wells containing Assay Buffer plus 0.5% DMSO final. To these wells the compounds to be tested were added at 3× concentration. • Column 23: alternating wells of Max Signal Control in second injection (Assay buffer) and Min Signal Control in second injection (Antagonist Capsazepine IC100, 50 μM) in Assay buffer plus 0.5% DMSO final; • Column 24: wells containing Capsazepine (Antagonist) at 8 concentrations in duplicate at final concentrations of […] in Assay buffer plus 0.5% DMSO final.
3. Activator Plate (FIG. 2), containing agonist Cooling Agent 10 at EC80, formulated as follows: • Column 1: Cooling Agent 10 (Agonist) at 8 concentrations dose response in duplicate at final concentrations of […] in Assay buffer; • Columns 2-24: Cooling Agent 10 (Agonist) at EC80 (3 fold concentrated, 20 μM final) in Assay buffer.
The test was carried out according to a procedure comprising the following steps: • 1. The samples contained in the wells of the Compound Plate were added to the corresponding wells of the Assay Plate by the FLIPR^TETRA, thus resulting in the addition in Columns 3-22 of the test compounds at 3× concentration to the cells of the assay plates. No mixing was performed in the assay wells and the signal of the emitted fluorescence was recorded for 300 seconds. • 2.

Values joined by “and” are separate entries in the source; they are usually repeats but may differ in a detail not shown here. Equal values may be shown once.

Sequence of human TRPM8 (Q7Z2W7 whole entry): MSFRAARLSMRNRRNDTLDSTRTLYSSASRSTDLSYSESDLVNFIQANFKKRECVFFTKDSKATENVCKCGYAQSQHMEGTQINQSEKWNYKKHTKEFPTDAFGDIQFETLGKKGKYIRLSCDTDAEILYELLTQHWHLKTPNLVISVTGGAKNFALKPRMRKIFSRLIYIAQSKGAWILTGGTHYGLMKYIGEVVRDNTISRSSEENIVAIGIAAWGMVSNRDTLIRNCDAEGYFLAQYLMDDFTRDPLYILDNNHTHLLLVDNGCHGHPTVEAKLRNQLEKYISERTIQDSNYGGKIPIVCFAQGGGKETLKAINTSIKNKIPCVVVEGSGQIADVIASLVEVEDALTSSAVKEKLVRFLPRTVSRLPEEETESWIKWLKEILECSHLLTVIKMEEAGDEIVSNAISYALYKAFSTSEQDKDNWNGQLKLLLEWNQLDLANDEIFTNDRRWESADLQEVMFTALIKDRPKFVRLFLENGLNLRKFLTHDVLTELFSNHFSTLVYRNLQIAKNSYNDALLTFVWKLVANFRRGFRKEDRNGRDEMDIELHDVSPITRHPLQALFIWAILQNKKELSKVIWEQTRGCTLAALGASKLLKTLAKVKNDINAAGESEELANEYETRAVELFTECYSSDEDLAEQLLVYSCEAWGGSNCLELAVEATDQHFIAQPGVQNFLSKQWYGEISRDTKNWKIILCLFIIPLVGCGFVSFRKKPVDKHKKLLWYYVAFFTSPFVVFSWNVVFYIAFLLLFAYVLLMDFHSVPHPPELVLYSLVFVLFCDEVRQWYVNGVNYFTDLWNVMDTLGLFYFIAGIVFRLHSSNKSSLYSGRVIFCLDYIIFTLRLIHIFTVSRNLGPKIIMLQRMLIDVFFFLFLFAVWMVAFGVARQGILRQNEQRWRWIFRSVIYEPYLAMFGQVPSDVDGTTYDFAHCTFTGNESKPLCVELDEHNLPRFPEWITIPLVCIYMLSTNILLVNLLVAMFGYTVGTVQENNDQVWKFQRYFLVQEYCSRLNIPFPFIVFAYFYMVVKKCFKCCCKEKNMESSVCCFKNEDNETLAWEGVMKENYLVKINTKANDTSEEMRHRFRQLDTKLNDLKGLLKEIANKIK
Sequence of CYP2C9 (P11712 whole entry): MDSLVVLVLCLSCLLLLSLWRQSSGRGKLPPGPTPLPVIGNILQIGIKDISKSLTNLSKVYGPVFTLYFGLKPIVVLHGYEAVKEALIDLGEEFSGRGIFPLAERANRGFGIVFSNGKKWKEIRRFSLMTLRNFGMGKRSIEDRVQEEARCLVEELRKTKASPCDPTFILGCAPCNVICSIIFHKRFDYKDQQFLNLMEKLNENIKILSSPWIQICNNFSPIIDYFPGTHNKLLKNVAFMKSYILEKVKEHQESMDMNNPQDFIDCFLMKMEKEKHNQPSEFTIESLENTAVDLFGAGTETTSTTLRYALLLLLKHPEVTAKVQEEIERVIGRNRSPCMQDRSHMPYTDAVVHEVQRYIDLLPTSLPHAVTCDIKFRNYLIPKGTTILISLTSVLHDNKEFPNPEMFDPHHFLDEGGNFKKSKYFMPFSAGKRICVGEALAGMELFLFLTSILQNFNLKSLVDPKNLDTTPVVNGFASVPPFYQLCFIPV
Sequence of CYP2D6 (P10635 whole entry): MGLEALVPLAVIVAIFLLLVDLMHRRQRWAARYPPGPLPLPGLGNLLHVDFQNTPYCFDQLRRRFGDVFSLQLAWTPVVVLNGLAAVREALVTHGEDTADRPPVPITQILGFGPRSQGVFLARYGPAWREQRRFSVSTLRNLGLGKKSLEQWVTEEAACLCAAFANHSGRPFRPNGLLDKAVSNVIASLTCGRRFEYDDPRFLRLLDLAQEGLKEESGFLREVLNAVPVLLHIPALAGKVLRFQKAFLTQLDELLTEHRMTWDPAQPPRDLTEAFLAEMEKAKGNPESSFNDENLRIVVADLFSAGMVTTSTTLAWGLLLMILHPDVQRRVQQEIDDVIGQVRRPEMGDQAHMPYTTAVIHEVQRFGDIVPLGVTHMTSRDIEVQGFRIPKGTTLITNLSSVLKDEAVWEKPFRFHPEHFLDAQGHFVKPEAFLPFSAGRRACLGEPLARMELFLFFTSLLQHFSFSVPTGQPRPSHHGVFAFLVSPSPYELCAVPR
Sequence of CYP3A4 (P08684 whole entry): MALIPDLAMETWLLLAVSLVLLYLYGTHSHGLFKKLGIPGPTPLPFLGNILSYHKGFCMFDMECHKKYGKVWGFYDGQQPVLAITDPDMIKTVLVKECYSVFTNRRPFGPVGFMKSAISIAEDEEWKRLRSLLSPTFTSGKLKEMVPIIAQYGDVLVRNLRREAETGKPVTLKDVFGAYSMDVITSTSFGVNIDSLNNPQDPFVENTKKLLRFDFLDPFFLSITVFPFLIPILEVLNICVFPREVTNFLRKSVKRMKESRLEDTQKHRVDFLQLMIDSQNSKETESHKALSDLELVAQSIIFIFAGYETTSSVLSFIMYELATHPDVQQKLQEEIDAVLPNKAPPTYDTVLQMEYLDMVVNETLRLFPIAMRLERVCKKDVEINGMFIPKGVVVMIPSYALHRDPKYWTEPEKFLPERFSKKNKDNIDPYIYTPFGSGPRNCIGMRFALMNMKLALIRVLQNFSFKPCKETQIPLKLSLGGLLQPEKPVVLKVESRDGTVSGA
Sequence of CYP2C19 (P33261 whole entry): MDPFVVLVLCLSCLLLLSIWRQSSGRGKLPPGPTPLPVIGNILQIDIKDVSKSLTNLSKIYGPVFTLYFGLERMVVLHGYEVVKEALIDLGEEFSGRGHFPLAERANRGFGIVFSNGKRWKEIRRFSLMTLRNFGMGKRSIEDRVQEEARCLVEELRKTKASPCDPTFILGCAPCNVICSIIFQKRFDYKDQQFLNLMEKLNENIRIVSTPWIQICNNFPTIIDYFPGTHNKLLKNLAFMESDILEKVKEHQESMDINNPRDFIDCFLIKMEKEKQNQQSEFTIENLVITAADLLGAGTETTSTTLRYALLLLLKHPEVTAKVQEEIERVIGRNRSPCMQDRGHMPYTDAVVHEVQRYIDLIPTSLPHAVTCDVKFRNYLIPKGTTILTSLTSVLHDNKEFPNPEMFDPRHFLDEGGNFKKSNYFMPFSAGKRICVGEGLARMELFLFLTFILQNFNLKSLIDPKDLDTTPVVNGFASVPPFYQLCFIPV

By fraction unbound is commonly meant the share of the substance not bound to proteins or other matrix. A high value points to much free substance. The term inhibition denotes the share of the control response that was lost under treatment. A high value points to strong suppression. For orientation: half-life means how long it takes for the measured level to halve. A high value points to slow decline. What is called IC50 is the point on the concentration scale where inhibition reaches its midpoint. Consider `Cl.Clc1c(OCCNCc2ccco2)ccc2ccccc12` [Compound 1, 2-[(1-chloronaphthalen-2-yl)oxy]-N-(furan-2-ylmethyl)ethanaminium chloride], for which the figures for the fraction unbound at 10 μM in [1] and in data set [2] were 0.02 and 0.03, respectively. For the same compound, the inhibition at 10 µM worked out at 63.1% against CYP2C9, 100% at CYP2D6, 33.3% against CYP3A4 and 55.3% at CYP2C19. For the same compound, in “Plasma stability, rat”, the “Plasma stability (% remaining) @10 μM” value was 87%. In addition, in “t1/2 i.v. rat”, the half-life came out at 1.05 h. Moreover, the IC50 at human TRPM8 is < 10000 nM and 70 nM.

(Values after patent US8906946B2, “TRPM8 receptor antagonists” (Dompe' S.p.A., priority 2011, dated 2014).)
